Measurements from ChEMBL document CHEMBL1201862, “PubChem BioAssay data set” (2004).
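How tested: cells in 96-well plates exposed to compound for 48 hours at five concentrations. Abbreviation: GI50, concentration required for 50% inhibition of growth.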 The source made the active and inactive calls. No stated cut-off is given here; in the data, active = GI50 up to about 1.1 µM and inactive = higher.

What was measured:
Assay in all cases: NCI tumour cell line growth inhibition, 48 h
SW-620 = test system: SW-620
DU-145 = test system: DU-145
K562 = test system: K562
786-0 = test system: 786-0
NCI-H460 = test system: NCI-H460
HT-29 = test system: HT-29
LOX IMVI = test system: LOX IMVI
Malme-3M = test system: Malme-3M
NCI-H23 = test system: NCI-H23
HL-60 = test system: HL-60
NCI-H226 = test system: NCI-H226
UO-31 = test system: UO-31
EKVX = test system: EKVX
A549 = test system: A549
NCI/ADR-RES = test system: NCI/ADR-RES
SN12C = test system: SN12C
HCC 2998 = test system: HCC 2998
SK-MEL-5 = test system: SK-MEL-5
MCF7 = test system: MCF7

| Structure (SMILES) | GI50 (SW-620) | GI50 (DU-145) | GI50 (K562) | GI50 (786-0) | GI50 (NCI-H460) | GI50 (HT-29) | GI50 (LOX IMVI) | GI50 (Malme-3M) | GI50 (NCI-H23) | GI50 (HL-60) | GI50 (NCI-H226) | GI50 (UO-31) | GI50 (EKVX) | GI50 (A549) | GI50 (NCI/ADR-RES) | GI50 (SN12C) | GI50 (HCC 2998) | GI50 (SK-MEL-5) | GI50 (MCF7) |
| --- | --- | --- | --- | --- | --- | --- | --- | --- | --- | --- | --- | --- | --- | --- | --- | --- | --- | --- | --- |
| C[C@]12CC[C@H](O)C[C@@H]1CC[C@@H]1[C@@H]2CC[C@]2(C)[C@@H](C3=CC(=O)OC3)CC[C@]12O | 3.51 µM (inactive) | 1.49 µM (inactive) | 3.97 µM (inactive) | 1.95 µM (inactive) | 0.673 µM (active) | 3.44 µM (inactive) | 2.59 µM (inactive) | 2.16 µM (inactive) | 1.87 µM (inactive) | 2.88 µM (inactive) | 11.2 µM (inactive) | 2.37 µM (inactive) | 2.38 µM (inactive) | 0.627 µM (active) | 2.07 µM (inactive) | 0.964 µM (active) | 3.05 µM (inactive) | 1.15 µM (inactive) | – |
| O=C(Nc1ccc([N+](=O)[O-])cc1)Nn1cnnc1 | 89.7 µM (inactive) | 64 µM (inactive) | > 100 µM (inactive) | – | 37.6 µM (inactive) | 26.2 µM (inactive) | 96.8 µM (inactive) | 15.9 µM (inactive) | 13 µM (inactive) | > 100 µM (inactive) | < 0.01 µM (active) | 53.1 µM (inactive) | > 100 µM (inactive) | 67.3 µM (inactive) | – | > 10 µM (inactive) | 55.1 µM (inactive) | > 100 µM (inactive) | 73.6 µM (inactive) |
| CCN(CC)C(=S)SS(=O)(=O)c1ccc(C)cc1 | 19.9 µM (inactive) | 42.6 µM (inactive) | 28.5 µM (inactive) | 20.3 µM (inactive) | 27.2 µM (inactive) | 13.2 µM (inactive) | 17.4 µM (inactive) | 20.4 µM (inactive) | 42.4 µM (inactive) | – | 52 µM (inactive) | 20.7 µM (inactive) | > 100 µM (inactive) | – | 35.6 µM (inactive) | 17.5 µM (inactive) | 36.9 µM (inactive) | 0.644 µM (active) | – |
| Cc1ccc(N2C(=O)/C(=C/c3ccc(N(CCC#N)CCC#N)cc3)N=C2COc2ccc(Cl)cc2Cl)cc1 | > 100 µM (inactive) | – | > 100 µM (inactive) | > 100 µM (inactive) | > 100 µM (inactive) | > 100 µM (inactive) | > 100 µM (inactive) | > 100 µM (inactive) | > 100 µM (inactive) | > 100 µM (inactive) | > 100 µM (inactive) | > 100 µM (inactive) | > 100 µM (inactive) | > 100 µM (inactive) | – | > 100 µM (inactive) | – | > 100 µM (inactive) | – |
| CN(C)/C=N/c1c2c(nc3ccccc13)CCCC2 | – | > 100 µM (inactive) | 32 µM (inactive) | > 100 µM (inactive) | – | 36.7 µM (inactive) | 91 µM (inactive) | > 100 µM (inactive) | 50.7 µM (inactive) | 31.1 µM (inactive) | 36 µM (inactive) | 67.8 µM (inactive) | > 100 µM (inactive) | 57.9 µM (inactive) | 37.3 µM (inactive) | > 100 µM (inactive) | – | > 100 µM (inactive) | 72.9 µM (inactive) |
| C=CCNC1=C2C[C@@H](C)C[C@@H](OC)[C@H](OC(=O)CCCCN)[C@H](C)/C=C(\C)[C@@H](OC(N)=O)[C@H](OC)/C=C\C=C(/C)C(=O)NC(=CC1=O)C2=O | 6.18 µM (inactive) | 6.47 µM (inactive) | 9.62 µM (inactive) | 13.4 µM (inactive) | 11.6 µM (inactive) | 4.27 µM (inactive) | 12.6 µM (inactive) | 6.71 µM (inactive) | 14.6 µM (inactive) | 11.7 µM (inactive) | – | 19.5 µM (inactive) | 13.7 µM (inactive) | 11.9 µM (inactive) | > 100 µM (inactive) | 13 µM (inactive) | 4.27 µM (inactive) | 11.6 µM (inactive) | 3.77 µM (inactive) |
| O=C1CCC(=O)C(C(=O)CCC(=O)Nc2ccc(Cl)cc2)C1 (centres undefined) | > 100 µM (inactive) | – | > 100 µM (inactive) | > 100 µM (inactive) | > 100 µM (inactive) | > 100 µM (inactive) | > 100 µM (inactive) | > 100 µM (inactive) | > 100 µM (inactive) | > 100 µM (inactive) | > 100 µM (inactive) | > 100 µM (inactive) | > 100 µM (inactive) | > 100 µM (inactive) | – | > 100 µM (inactive) | > 100 µM (inactive) | > 100 µM (inactive) | – |
| Cc1c(N2C(=O)/C(=C/C=C/c3ccccc3)N=C2c2ccccc2)c(=O)n(-c2ccccc2)n1C | 31.6 µM (inactive) | 40.8 µM (inactive) | 19 µM (inactive) | 29.3 µM (inactive) | 29.4 µM (inactive) | 20.3 µM (inactive) | 21.5 µM (inactive) | 28.8 µM (inactive) | 22 µM (inactive) | 11.8 µM (inactive) | 24.7 µM (inactive) | 18.4 µM (inactive) | 15.6 µM (inactive) | 25.6 µM (inactive) | 21.7 µM (inactive) | 24.5 µM (inactive) | – | 16.3 µM (inactive) | 28.8 µM (inactive) |
